# Measurements as given in patent publication US4314028A, “Fermentation process for producing tallysomycin compounds” (priority 1980, dated 1982).
# Tests used:
# [1] = test system: Lymphocytic leukemia P388; test: animal or person; format: in vivo, BDF1 mice; settings: copper-chelated form unless otherwise stated; for Antitumor activity P388 (ED125): ip, once daily 9 days, dose giving T/C survival of 125%; for Antitumor therapeutic index P388: single dose LD50/ED125
# How it was run: (§1)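 P388 (3×10^5 cells) and Lewis lung (5×10^5) i.p. in BDF1 mice, B16 (5×10^5) s.c. in BDF1, Sarcoma 180 ([…]) i.p. in male dd mice. ED125 (Sarcoma 180 ED150) from median-survival T/C, 45 days; B16 ID50 from day-16 tumor size.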
# [2] = test system: Sarcoma 180; test: animal or person; format: in vivo, dd-strain mice; settings: copper-chelated form unless otherwise stated; for ED (T/C 150%): Mus musculus, 216 h, read-out: Antitumor activity S180 (ED150); for ED (T/C 150%) / Antitumor activity S180 (ED150): ip, once daily 9 days, effective dose 150, survival; for Antitumor therapeutic index S180: single dose LD50/ED150
# How it was run: as §1
# [3] = test system: Lewis lung carcinoma; test: Antitumor activity in mice, Lewis lung carcinoma; format: in vivo, BDF1 mice; settings: copper-chelated form unless otherwise stated; for Antitumor activity Lewis lung (ED125): ip, once daily 11 days, dose giving T/C survival of 125%; for Antitumor therapeutic index Lewis Lung: single dose LD50/ED125
# Description: The antitumor activity of the tallysomycin derivatives was examined in four experimental tumor systems in mice. Lymphocytic leukemia P388 and Lewis lung carcinoma were implanted intraperitoneally into BDF1 mice of either sex at an inoculum size of 3×10^5 and 5×10^5 cells per mouse, respectively. Sarcoma 180 ascites tumor was inoculated intraperitoneally into male dd-strain mice with […] per mouse. Melanotic melanoma B16 was implanted subcutaneously into BDF1 mice with 5×10^5 cells per mouse. Twenty-four hours after the implantation of tumor cells, graded doses of test compounds were administered to mice intraperitoneally in an injection volume of 0.2 ml. per 10 grams of body weight. Test compounds were given once daily for 9 days (qd 1→9 schedule) except for the mice inoculated with Lewis lung carcinoma which were treated for 11 days (qd 1→11). Death or survival of the treated and non-treated (control) animals was recorded daily during the observation period of 45 days after the implantation of tumor cells, and the median survival time was calculated for each of the test (T) and control (C) groups. […] The actual dose giving a T/C of 125% was estimated by linear regression analysis and defined as the effective dose 125 or ED125. The effective dose 150 (ED150) was employed for the evaluation of antitumor effect against Sarcoma 180. In the B16 melanoma experiment the tumor size was measured on day 16 after tumor inoculation, and the dose giving 50% inhibition of tumor growth (ID50) was calculated from regression lines.
# The antitumor therapeutic index was calculated for each derivative from the ratio of toxicity and antitumor activity.
# [4] = Acute toxicity, single dose LD50; format: in vivo, dd mice; settings: ip, 30 days observation, copper-chelated form unless otherwise stated
# Protocol: (§2) Graded doses of test compounds were administered intraperitoneally to groups of dd mice. The injection was given one time only or once daily for 9 consecutive days. Death or survival of the animals was recorded for 30 days after the last dose of test compound to calculate the single or multiple median lethal dose (LD50).
# [5] = Subacute toxicity, multiple dose LD50; format: in vivo, dd mice; settings: ip, once daily 9 days, 30 days observation; copper-chelated form unless otherwise stated
# Protocol: as §2
# [6] = test system: Aspergillus fumigatus IAM 2593; test: MIC, two-fold agar dilution method; format: cell-based; settings: Sabouraud agar
# How it was run: (§3)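 Agar dilution (2-fold series) on nutrient agar (bacteria) or Sabouraud agar (fungi).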
# [7] = test system: Bacillus subtilis PCI 219; test: MIC, two-fold agar dilution method; format: cell-based; settings: nutrient agar
# How it was run: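 Two-fold agar dilution; nutrient agar for bacteria, Sabouraud agar for A. fumigatus. MIC = lowest inhibitory concentration.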
# [8] = test system: Candida albicans IAM 4888; test: MIC, two-fold agar dilution method; format: cell-based; settings: Sabouraud agar
# How it was run: (§4)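 Compounds are diluted two-fold through agar plates: Sabouraud medium for the fungus, nutrient medium for the bacterial strains, including the acid-fast Mycobacterium 607. Organisms are then applied and the minimum inhibitory concentration is recorded.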
# [9] = test system: Escherichia coli NIHJ; test: MIC, two-fold agar dilution method; format: cell-based; settings: nutrient agar
# How it was run: as §4
# [10] = test system: Mycobacterium 607; test: MIC, two-fold agar dilution method; format: cell-based; settings: nutrient agar
# How it was run: as §3
# [11] = test system: Proteus mirabilis A9554; test: MIC, two-fold agar dilution method; format: cell-based; settings: nutrient agar
# How it was run: as §4
# [12] = test system: Sarcina lutea PCI1001; test: MIC, two-fold agar dilution method; format: cell-based; settings: nutrient agar
# How it was run: as §3
# [13] = test system: Staphylococcus aureus Smith; test: MIC, two-fold agar dilution method; format: cell-based; settings: nutrient agar
# How it was run: as §3
# [14] = test system: Mycobacterium smegmatis strain M6-3; test: Relative antibacterial potency, paper-disc agar diffusion method; format: cell-based; settings: relative to tallysomycin A standard=1000 mcg/mg
# Protocol: The relative antibacterial potencies (tallysomycin A standard=1000 mcg/mg) of the tallysomycin derivatives were determined by the paper-disc agar diffusion method using Mycobacterium smegmatis strain M6-3 as the assay organism.
# [15] = test system: lysogenic bacterium E. coli W1709 (λ); test: Prophage induction of lysogenic bacterium (ILB activity); format: cell-based; settings: t/c ratio of plaque counts greater than 3.0
# How it was run: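 Plaques counted on agar plates containing test compound and on control plates, following Lein et al. A test/control plaque ratio above 3.0 counted as significant. Value given as the minimum inducible concentration.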
# [16] = test system: Melanotic melanoma B16; test: Antitumor activity in mice, melanotic melanoma B16; format: in vivo, BDF1 mice; settings: copper-chelated form unless otherwise stated; for Antitumor activity B16 (ID50): ip, once daily 9 days, 50% inhibition of tumor growth, day 16, 23040 min; for Antitumor therapeutic index B16: single dose LD50/ID50
# How it was run: as §1
Compound,Antitumor activity P388 (ED125) [1] [mg/kg/day],Antitumor activity Lewis lung (ED125) [3] [mg/kg/day],LD50 single dose [4] [mg/kg/day],LD50 multiple dose (qd 1 → 9) [5] [mg/kg/day],minimum inhibitory concentration (MIC) [6],minimum inhibitory concentration (MIC) [7],minimum inhibitory concentration (MIC) [8],minimum inhibitory concentration (MIC) [9],minimum inhibitory concentration (MIC) [10],minimum inhibitory concentration (MIC) [11],minimum inhibitory concentration (MIC) [12],minimum inhibitory concentration (MIC) [13],Antibacterial potency [14],ILB activity (minimum inducible concentration) [15] [µg/mL],Antitumor activity S180 (ED150) [2] [mg/kg/day],Antitumor activity B16 (ID50) [16] [mg/kg/day],Antitumor therapeutic index P388 [1],Antitumor therapeutic index S180 [2],Antitumor therapeutic index B16 [16],Antitumor therapeutic index Lewis Lung [3],also measured
"Cc1c(N)nc(C(CC(N)=O)NCC(N)C(N)=O)nc1C(=O)NC(C(=O)NC(C)C(O)CC(=O)NC(C(=O)NC(OC1OC(C)C(N)C(O)C1O)C(O)c1nc(-c2nc(C(=O)NCCCC(N)CC(=O)NCCCNCCCCN)cs2)cs1)C(C)O)C(OC1OC(CO)C(O)C(O)C1OC1OC(CO)C(O)C(OC(N)=O)C1O)c1c[nH]cn1 (stereo not shown) [Tallysomycin A (Cu-free), reference compound]",0.26,0.13,19,4.4,–,–,–,–,–,–,–,–,–,–,–,–,–,–,–,–,ED (T/C 150%) [2]: 0.07 mg/kg/day
"Cc1c(N)nc(C(CC(N)=O)NCC(N)C(N)=O)nc1C(=O)NC(C(=O)NC(C)C(O)CC(=O)NC(C(=O)NC(OC1OC(C)C(N)C(O)C1O)C(O)c1nc(-c2nc(C(=O)NCCCNCCCCN)cs2)cs1)C(C)O)C(OC1OC(CO)C(O)C(O)C1OC1OC(CO)C(O)C(OC(N)=O)C1O)c1c[nH]cn1 (stereo not shown) [Tallysomycin B (Cu-free), reference compound]",0.89,0.11,46,6.8,–,–,–,–,–,–,–,–,–,–,–,–,–,–,–,–,ED (T/C 150%) [2]: 0.06 mg/kg/day
Cc1c(N)nc(C(CC(N)=O)NCC(N)C(N)=O)nc1C(=O)NC(C(=O)NC(C)C(O)CC(=O)NC(C(=O)NC(OC1OC(C)C(N)C(O)C1O)C(O)c1nc(-c2nc(C(=O)NCCCNC(C)c3ccccc3)cs2)cs1)C(C)O)C(OC1OC(CO)C(O)C(O)C1OC1OC(CO)C(O)C(OC(N)=O)C1O)c1c[nH]cn1 (stereo not shown) [Tallysomycin S14b],3.0,0.29,–,16,25,0.4,> 100,0.4,0.2,25,3.1,3.1,"1,090 μ/mg",0.04,0.08,0.43,–,–,–,–,–
Cc1c(N)nc(C(CC(N)=O)NCC(N)C(N)=O)nc1C(=O)NC(C(=O)NC(C)C(O)CC(=O)NC(C(=O)NC(OC1OC(C)C(N)C(O)C1O)C(O)c1nc(-c2nc(C(=O)NCCN)cs2)cs1)C(C)O)C(OC1OC(CO)C(O)C(O)C1OC1OC(CO)C(O)C(OC(N)=O)C1O)c1c[nH]cn1 (stereo not shown) [Tallysomycin S3b],0.32,0.26,19,–,0.8,0.013,12.5,0.1,0.05,0.2,1.6,0.8,725 μ/mg,0.31,0.06,0.20,59,317,95,73,–
CNCCCNC(=O)c1csc(-c2csc(C(O)C(NC(=O)C(NC(=O)CC(O)C(C)NC(=O)C(NC(=O)c3nc(C(CC(N)=O)NCC(N)C(N)=O)nc(N)c3C)C(OC3OC(CO)C(O)C(O)C3OC3OC(CO)C(O)C(OC(N)=O)C3O)c3c[nH]cn3)C(C)O)OC3OC(C)C(N)C(O)C3O)n2)n1 (stereo not shown) [Tallysomycin S11b],0.28,0.32,21,–,6.3,0.1,12.5,0.2,0.1,1.6,0.8,3.1,450 μ/mg,0.63,0.20,0.70,75,105,30,66,–
Cc1c(N)nc(C(CC(N)=O)NCC(N)C(N)=O)nc1C(=O)NC(C(=O)NC(C)C(O)CC(=O)NC(C(=O)NC(OC1OC(C)C(N)C(O)C1O)C(O)c1nc(-c2nc(C(=O)NCCCC(N)CC(=O)NCCC[S+](C)C)cs2)cs1)C(C)O)C(OC1OC(CO)C(O)C(O)C1OC1OC(CO)C(O)C(OC(N)=O)C1O)c1c[nH]cn1 (stereo not shown) [Tallysomycin S2a],> 3.0,0.14,25,–,0.4,< 0.05,6.3,< 0.05,< 0.05,0.2,0.8,0.2,350 μ/mg,0.31,0.07,0.17,< 8,357,147,179,–
